Source: patent US7449582B2, “Compounds and compositions as protein kinase inhibitors” (IRM LLC, priority 2003, dated 2008)

Assays:
[1] = biological target: T1, MKK6 (Homo sapiens, UniProt P52564); test: Upstate KinaseProfiler radio-enzymatic filter binding assay, MKK6; type: biochemical; details: at a concentration of 10 μM; read-out: percentage inhibition
T1 construct: purchased Upstate
Description: (§1) Compounds of the invention are assessed for their ability to inhibit individual members of a panel of kinases (a partial, non-limiting list of kinases includes: Abl, BCR-Abl, CSK, JNK1, JNK2, PDGF-R, p38, p70S6K, TGFβ, SRC, EGFR, c-Kit, trkB, FGFR3, Fes, Lck, Syk, RAF, MKK4, MKK6 and SAPK2μ). The compounds are tested in duplicates at a final concentration of 10 μM following this generic protocol. Note that the kinase buffer composition and the substrates vary for the different kinases included in the “Upstate KinaseProfiler™” panel. Kinase buffer (2.5 μL, 10×—containing MnCl2 when required), active kinase (0.001-0.01 Units; 2.5 μL), specific or Poly(Glu4-Tyr) peptide (5-500 μM or 0.01 mg/ml) in kinase buffer and […] are mixed in an eppendorf on ice. […] The assay squares are transferred to a scintillation vial, 5 ml scintillation cocktail are added and ^32P incorporation (cpm) to the peptide substrate is quantified with a Beckman scintillation counter. Percentage inhibition is calculated for each reaction.

[2] = biological target: T2, Lck (Homo sapiens, UniProt P06239); test: Upstate KinaseProfiler radio-enzymatic filter binding assay, Lck; type: biochemical; details: at a concentration of 10 μM; read-out: percentage inhibition
T2 construct: purchased Upstate
Description: as §1

[3] = biological target: T3, JNK1α1 (Homo sapiens, UniProt P45983); test: Upstate KinaseProfiler radio-enzymatic filter binding assay, JNK1α1; type: biochemical; details: at a concentration of 10 μM; read-out: percentage inhibition
T3 construct: purchased Upstate
T3 sequence (P45983 1-384 isoform P45983-2): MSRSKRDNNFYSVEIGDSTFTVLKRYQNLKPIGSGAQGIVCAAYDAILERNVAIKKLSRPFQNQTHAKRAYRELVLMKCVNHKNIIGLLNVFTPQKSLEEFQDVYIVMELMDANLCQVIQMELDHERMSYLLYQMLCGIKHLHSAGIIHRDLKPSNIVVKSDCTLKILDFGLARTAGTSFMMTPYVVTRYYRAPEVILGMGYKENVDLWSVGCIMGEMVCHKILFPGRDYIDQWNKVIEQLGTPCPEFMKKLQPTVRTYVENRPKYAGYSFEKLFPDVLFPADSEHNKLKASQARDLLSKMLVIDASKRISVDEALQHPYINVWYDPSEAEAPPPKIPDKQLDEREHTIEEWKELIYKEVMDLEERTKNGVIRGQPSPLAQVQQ
Description: as §1

[4] = test system: wild-type Abl; test: Upstate KinaseProfiler radio-enzymatic filter binding assay, Abl; type: biochemical; details: at a concentration of 10 μM
Description: as §1

[5] = biological target: T4, Bmx (Homo sapiens, UniProt P51813); test: Upstate KinaseProfiler radio-enzymatic filter binding assay, Bmx; type: biochemical; details: at a concentration of 10 μM; read-out: percentage inhibition
T4 construct: purchased Upstate
T4 sequence (P51813 whole entry): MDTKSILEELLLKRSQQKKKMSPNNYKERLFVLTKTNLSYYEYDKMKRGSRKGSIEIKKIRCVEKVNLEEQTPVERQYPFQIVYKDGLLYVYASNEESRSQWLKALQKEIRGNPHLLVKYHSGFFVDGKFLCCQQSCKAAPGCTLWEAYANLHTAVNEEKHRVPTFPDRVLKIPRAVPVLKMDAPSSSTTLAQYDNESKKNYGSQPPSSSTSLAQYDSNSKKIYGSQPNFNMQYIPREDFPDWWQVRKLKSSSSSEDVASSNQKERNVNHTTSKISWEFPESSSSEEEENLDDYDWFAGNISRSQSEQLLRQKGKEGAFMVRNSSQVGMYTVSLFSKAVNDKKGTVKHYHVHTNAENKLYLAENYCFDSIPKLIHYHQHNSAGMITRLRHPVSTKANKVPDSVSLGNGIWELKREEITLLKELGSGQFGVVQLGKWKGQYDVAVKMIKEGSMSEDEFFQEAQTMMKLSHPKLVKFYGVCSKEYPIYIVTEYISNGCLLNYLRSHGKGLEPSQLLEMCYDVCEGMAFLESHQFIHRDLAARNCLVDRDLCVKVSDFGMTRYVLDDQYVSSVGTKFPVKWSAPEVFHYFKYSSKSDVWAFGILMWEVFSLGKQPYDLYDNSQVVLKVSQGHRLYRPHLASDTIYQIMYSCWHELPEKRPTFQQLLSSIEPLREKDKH
Description: as §1

[6] = biological target: T5, TrkB (Homo sapiens, UniProt Q16620); test: Upstate KinaseProfiler radio-enzymatic filter binding assay, TrkB; type: biochemical; details: at a concentration of 10 μM; read-out: percentage inhibition
T5 construct: purchased Upstate
T5 sequence (Q16620 32-822): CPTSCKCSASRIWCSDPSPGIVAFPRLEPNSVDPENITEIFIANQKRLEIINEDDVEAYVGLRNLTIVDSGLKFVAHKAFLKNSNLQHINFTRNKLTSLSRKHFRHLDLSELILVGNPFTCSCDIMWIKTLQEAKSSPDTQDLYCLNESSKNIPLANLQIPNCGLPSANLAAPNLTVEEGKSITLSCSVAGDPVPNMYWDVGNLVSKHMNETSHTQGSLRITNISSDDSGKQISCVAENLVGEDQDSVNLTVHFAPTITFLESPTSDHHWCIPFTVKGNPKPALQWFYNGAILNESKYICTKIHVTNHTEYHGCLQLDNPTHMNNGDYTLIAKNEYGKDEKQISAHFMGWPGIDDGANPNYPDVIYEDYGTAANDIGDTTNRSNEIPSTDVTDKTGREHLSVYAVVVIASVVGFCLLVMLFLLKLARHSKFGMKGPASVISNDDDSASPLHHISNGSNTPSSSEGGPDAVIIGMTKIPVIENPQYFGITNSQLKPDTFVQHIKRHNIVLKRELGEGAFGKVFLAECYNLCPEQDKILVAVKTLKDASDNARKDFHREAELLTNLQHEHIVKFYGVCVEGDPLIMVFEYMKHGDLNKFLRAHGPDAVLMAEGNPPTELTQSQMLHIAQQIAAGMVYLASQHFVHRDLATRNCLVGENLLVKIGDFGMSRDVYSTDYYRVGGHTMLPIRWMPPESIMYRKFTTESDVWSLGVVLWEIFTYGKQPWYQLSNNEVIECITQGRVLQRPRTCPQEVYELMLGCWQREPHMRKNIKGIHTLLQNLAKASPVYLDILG
Description: as §1

[7] = biological target: T6, G250E Bcr-abl (Homo sapiens, UniProt P00519, G250E); test: Proliferation of Ba/F3 cells expressing G250E mutant Bcr-abl; type: cell-based
T6 construct: BCR (N-terminal fusion partner); expressed in transfected cells; host or cells: Ba/F3 (murine pro-B cells); the other entry of the earlier key: BCR (P11274, Breakpoint cluster region protein)
Description: (§2) 32D-p210 cells are plated into 96 well TC plates at a density of 15,000 cells per well. 50 μL of two fold serial dilutions of the test compound (Cmax is 40 μM) are added to each well (STI571 is included as a positive control). After incubating the cells for 48 hours at 37° C., 5% CO2, 15 μL of MTT (Promega) is added to each well and the cells are incubated for an additional 5 hours. The optical density at 570 nm is quantified spectrophotometrically and IC50 values, the concentration of compound required for 50% inhibition, determined from a dose response curve.
(§3) Compounds of the invention are tested for their antiproliferative effect on Ba/F3 cells expressing either wild type or the mutant forms of BCR-Abl (G250E, E255V, T315I, F317L, M351T) that confers resistance or diminished sensitivity to ST1571. The antiproliferative effect of these compounds on the mutant-BCR-Abl expressing cells and on the non transformed cells were tested at 10, 3.3, 1.1 and 0.37 μM as described above (in media lacking IL3). The IC50 values of the compounds lacking toxicity on the untransformed cells were determined from the dose response curves obtained as describe above.

[8] = biological target: T7, F317L Bcr-abl (Homo sapiens, UniProt P00519, F317L); test: Proliferation of Ba/F3 cells expressing F317L mutant Bcr-abl; type: cell-based
T7 construct: BCR (N-terminal fusion partner); expressed in transfected cells; host or cells: Ba/F3 (murine pro-B cells); the other entry of the earlier key: BCR (P11274, Breakpoint cluster region protein)
Description: as §2, §3

[9] = biological target: b-Raf (Homo sapiens, UniProt P15056); test: b-Raf enzyme assay; type: biochemical
Sequence of b-Raf (P15056 whole entry): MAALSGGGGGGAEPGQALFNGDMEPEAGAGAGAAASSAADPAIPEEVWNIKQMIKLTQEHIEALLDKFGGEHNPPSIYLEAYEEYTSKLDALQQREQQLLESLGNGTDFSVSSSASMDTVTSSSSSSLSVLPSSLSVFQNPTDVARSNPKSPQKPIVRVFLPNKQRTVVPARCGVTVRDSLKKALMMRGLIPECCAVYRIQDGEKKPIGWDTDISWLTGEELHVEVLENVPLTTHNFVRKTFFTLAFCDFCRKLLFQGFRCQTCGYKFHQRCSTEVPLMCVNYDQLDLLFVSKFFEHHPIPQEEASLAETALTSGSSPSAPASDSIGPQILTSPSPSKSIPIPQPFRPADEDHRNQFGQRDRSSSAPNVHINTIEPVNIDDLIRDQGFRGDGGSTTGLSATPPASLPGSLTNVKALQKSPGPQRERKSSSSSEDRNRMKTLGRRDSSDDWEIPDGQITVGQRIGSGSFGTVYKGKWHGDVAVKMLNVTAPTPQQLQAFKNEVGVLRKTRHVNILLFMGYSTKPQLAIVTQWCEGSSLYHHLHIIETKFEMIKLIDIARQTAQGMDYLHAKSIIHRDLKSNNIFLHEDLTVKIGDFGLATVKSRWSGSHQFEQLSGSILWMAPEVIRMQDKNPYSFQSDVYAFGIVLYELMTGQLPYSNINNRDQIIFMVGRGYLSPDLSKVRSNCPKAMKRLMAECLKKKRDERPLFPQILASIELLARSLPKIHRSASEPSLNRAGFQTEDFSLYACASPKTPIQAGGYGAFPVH
Description: Compounds of the invention are tested for their ability to inhibit the activity of b-Raf. The assay is carried out in 384-well MaxiSorp plates (NUNC) with black walls and clear bottom. The substrate, IκBα is diluted in DPBS (1:750) and 15 μl is added to each well. The plates are incubated at 4° C. overnight and washed 3 times with TBST (25 mM Tris, pH 8.0, 150 mM NaCl and 0.05% Tween-20) using the EMBLA plate washer. Plates are blocked by Superblock (15 μl/well) for 3 hours at room temperature, washed 3 times with TBST and pat-dried. Assay buffer containing 20 μM ATP (10 μl) is added to each well followed by 100 nl or 500 nl of compound. B-Raf is diluted in the assay buffer (1 μl into 25 μl) and 10 μl of diluted b-Raf is added to each well (0.4 μg/well). The plates are incubated at room temperature for 2.5 hours. The kinase reaction is stopped by washing the plates 6 times with TBST. Phosph-IκBα (Ser32/36) antibody is diluted in Superblock (1:10,000) and 15 μl is added to each well. The plates are incubated at 4° C. overnight and washed 6 times with TBST. AP-conjugated goat-anti-mouse IgG is diluted in Superblock (1:1,500) and 15 μl is added to each well. Plates are incubated at room temperature for 1 hour and washed 6 times with TBST. […] Plates are read on Acquest or Analyst GT using a Fluorescence Intensity Nanxin BBT anion (505 dichroic mirror).

[10] = biological target: T8, SAPK2β (Homo sapiens, UniProt Q15759); test: Upstate KinaseProfiler radio-enzymatic filter binding assay, SAPK2β; type: biochemical; details: at a concentration of 10 μM; read-out: percentage inhibition
T8 construct: purchased Upstate
Description: as §1

[11] = biological target: T9, FGFR3 (Homo sapiens, UniProt P22607); test: FGFR3 (Enzymatic Assay); type: biochemical; details: FGFR3 enzyme assay
T9 construct: purchased Upstate
T9 sequence (P22607 23-806): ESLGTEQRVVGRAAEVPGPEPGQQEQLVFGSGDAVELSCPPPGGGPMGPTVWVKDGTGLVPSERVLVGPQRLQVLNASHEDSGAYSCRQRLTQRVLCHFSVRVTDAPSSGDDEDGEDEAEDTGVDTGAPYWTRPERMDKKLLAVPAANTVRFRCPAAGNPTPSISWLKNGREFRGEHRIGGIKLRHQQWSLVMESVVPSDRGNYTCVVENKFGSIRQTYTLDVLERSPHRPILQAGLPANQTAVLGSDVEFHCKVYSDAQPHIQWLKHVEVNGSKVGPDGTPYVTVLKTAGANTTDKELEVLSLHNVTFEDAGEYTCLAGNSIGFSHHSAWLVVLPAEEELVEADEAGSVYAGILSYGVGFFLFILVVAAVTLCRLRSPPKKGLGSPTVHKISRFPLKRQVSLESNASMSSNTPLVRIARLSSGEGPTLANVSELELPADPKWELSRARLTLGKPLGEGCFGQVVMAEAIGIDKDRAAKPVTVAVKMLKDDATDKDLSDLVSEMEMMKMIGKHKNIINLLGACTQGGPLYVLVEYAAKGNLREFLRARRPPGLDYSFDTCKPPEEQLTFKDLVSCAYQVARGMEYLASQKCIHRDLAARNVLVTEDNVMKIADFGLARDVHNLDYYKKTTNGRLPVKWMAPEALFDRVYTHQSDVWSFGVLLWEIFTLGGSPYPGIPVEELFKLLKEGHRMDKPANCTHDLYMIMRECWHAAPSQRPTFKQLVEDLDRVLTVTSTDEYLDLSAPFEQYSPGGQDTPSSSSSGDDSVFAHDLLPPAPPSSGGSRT
Description: Kinase activity assay with purified FGFR3 (Upstate) is carried out in a final volume of 10 μL containing 0.25 μg/mL of enzyme in kinase buffer (30 mM Tris-HCl pH7.5, 15 mM MgCl2, 4.5 mM MnCl2, 15 μM Na3VO4 and 50 μg/mL BSA), and substrates (5 μg/mL biotin-poly-EY(Glu, Tyr) (CIS-US, Inc.) and 3 μM ATP). Two solutions are made: the first solution of 5 μl contains the FGFR3 enzyme in kinase buffer was first dispensed into 384-format ProxiPlate® (Perkin-Elmer) followed by adding 50 nL of compounds dissolved in DMSO, then 5 μl of second solution contains the substrate (poly-EY) and ATP in kinase buffer was added to each wells. The reactions are incubated at room temperature for one hour, stopped by adding 10 μL of HTRF detection mixture, which contains 30 mM Tris-HCl pH7.5, 0.5 M KF, 50 mM ETDA, 0.2 mg/mL BSA, 15 μg/mL streptavidin-XL665 (CIS-US, Inc.) and 150 ng/mL cryptate conjugated anti-phosphotyrosine antibody (CIS-US, Inc.). After one hour of room temperature incubation to allow for streptavidin-biotin interaction, time resolved florescent signals are read on Analyst GT (Molecular Devices Corp.). IC50 values are calculated by linear regression analysis of the percentage inhibition of each compound at 12 concentrations (1:3 dilution from 50 μM to 0.28 nM).

[12] = biological target: T10, E255V Bcr-abl (Homo sapiens, UniProt P00519, E255V); test: Proliferation of Ba/F3 cells expressing E255V mutant Bcr-abl; type: cell-based
T10 construct: BCR (N-terminal fusion partner); expressed in transfected cells; host or cells: Ba/F3 (murine pro-B cells); the other entry of the earlier key: BCR (P11274, Breakpoint cluster region protein)
Description: as §2, §3

[13] = biological target: T11, M351T Bcr-abl (Homo sapiens, UniProt P00519, M351T); test: Proliferation of Ba/F3 cells expressing M351T mutant Bcr-abl; type: cell-based
T11 construct: BCR (N-terminal fusion partner); expressed in transfected cells; host or cells: Ba/F3 (murine pro-B cells); the other entry of the earlier key: BCR (P11274, Breakpoint cluster region protein)
Description: as §2, §3

[14] = biological target: T12, p70S6K (Homo sapiens, UniProt P23443); test: Upstate KinaseProfiler radio-enzymatic filter binding assay, p70S6K; type: biochemical; details: at a concentration of 10 μM; read-out: percentage inhibition
T12 construct: purchased Upstate
Description: as §1

[15] = biological target: T13, T315I Bcr-abl (Homo sapiens, UniProt P00519, T315I); test: Proliferation of Ba/F3 cells expressing T315I mutant Bcr-abl; type: cell-based
T13 construct: BCR (N-terminal fusion partner); expressed in transfected cells; host or cells: Ba/F3 (murine pro-B cells); the other entry of the earlier key: BCR (P11274, Breakpoint cluster region protein)
Description: as §2, §3

[16] = test system: Ba/F3-TEL-FGFR3 cells; test: FGFR3 (Cellular Assay); type: cell-based
Description: Compounds of the invention are tested for their ability to inhibit transformed Ba/F3-TEL-FGFR3 cells proliferation, which is depended on FGFR3 cellular kinase activity. Ba/F3-TEL-FGFR3 are cultured up to 800,000 cells/mL in suspension, with RPMI 1640 supplemented with 10% fetal bovine serum as the culture medium. Cells are dispensed into 384-well format plate at 5000 cell/well in 50 μL culture medium. Compounds of the invention are dissolved and diluted in dimethylsufoxide (DMSO). Twelve points 1:3 serial dilutions are made into DMSO to create concentrations gradient ranging typically from 10 mM to 0.05 μM. Cells are added with 50 nL of diluted compounds and incubated for 48 hours in cell culture incubator. AlamarBlue® (TREK Diagnostic Systems), which can be used to monitor the reducing environment created by proliferating cells, are added to cells at final concentration of 10%. After additional four hours of incubation in a 37° C. cell culture incubator, fluorescence signals from reduced AlamarBlue® (Excitation at 530 nm, Emission at 580 nm) are quantified on Analyst GT (Molecular Devices Corp.). IC50 values are calculated by linear regression analysis of the percentage inhibition of each compound at 12 concentrations.

[17] = biological target: c-Raf (Homo sapiens, UniProt P04049); test: c-Raf enzyme assay; type: biochemical
[18] = biological target: T14, JNK2 α2 (Homo sapiens, UniProt P45984); test: Upstate KinaseProfiler radio-enzymatic filter binding assay, JNK2α2; type: biochemical; details: at a concentration of 10 μM; read-out: percentage inhibition
T14 construct: purchased Upstate
Description: as §1

[19] = biological target: T15, CSK (Homo sapiens, UniProt P41240); test: Upstate KinaseProfiler radio-enzymatic filter binding assay, CSK; type: biochemical; details: at a concentration of 10 μM; read-out: percentage inhibition
T15 construct: purchased Upstate
Description: as §1

[20] = biological target: T9, FGFR3; test: Upstate KinaseProfiler radio-enzymatic filter binding assay, FGFR3; type: biochemical; details: at a concentration of 10 μM; read-out: percentage inhibition
Description: as §1

[21] = biological target: T16, MKK4 (Mus musculus, UniProt P47809); test: Upstate KinaseProfiler radio-enzymatic filter binding assay, MKK4; type: biochemical; details: at a concentration of 10 μM; read-out: percentage inhibition
T16 construct: purchased Upstate
T16 sequence (P47809 2-397 limits assumed): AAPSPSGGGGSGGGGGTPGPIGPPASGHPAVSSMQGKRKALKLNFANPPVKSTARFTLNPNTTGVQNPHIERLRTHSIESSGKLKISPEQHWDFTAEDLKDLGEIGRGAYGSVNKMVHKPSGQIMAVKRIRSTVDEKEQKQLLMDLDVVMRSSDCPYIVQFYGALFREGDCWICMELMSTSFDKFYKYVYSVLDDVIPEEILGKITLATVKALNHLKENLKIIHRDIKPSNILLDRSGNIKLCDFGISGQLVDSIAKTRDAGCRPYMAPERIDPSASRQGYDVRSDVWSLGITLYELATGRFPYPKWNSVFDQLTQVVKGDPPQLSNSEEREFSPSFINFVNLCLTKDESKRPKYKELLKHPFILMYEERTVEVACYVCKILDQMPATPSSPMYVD
Description: as §1

[22] = biological target: T17, c-Raf (Homo sapiens, UniProt P04049, Y340D/Y341D); test: Upstate KinaseProfiler radio-enzymatic filter binding assay, c-RAF; type: biochemical; details: at a concentration of 10 μM; read-out: percentage inhibition
T17 construct: purchased Upstate
T17 sequence (P04049 306-648 Y340D/Y341D limits assumed): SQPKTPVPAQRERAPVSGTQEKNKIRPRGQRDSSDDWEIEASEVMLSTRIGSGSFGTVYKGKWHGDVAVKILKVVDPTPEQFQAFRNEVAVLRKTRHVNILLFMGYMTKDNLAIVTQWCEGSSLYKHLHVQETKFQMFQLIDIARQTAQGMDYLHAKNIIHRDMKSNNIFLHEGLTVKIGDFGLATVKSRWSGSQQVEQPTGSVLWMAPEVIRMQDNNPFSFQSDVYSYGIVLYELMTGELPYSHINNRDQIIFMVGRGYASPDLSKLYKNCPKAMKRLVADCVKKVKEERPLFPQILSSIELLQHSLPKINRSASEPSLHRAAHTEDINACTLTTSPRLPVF
Description: as §1

[23] = biological target: T18, wild type Bcr-abl (Homo sapiens, UniProt P00519); test: Proliferation of Ba/F3 cells expressing wild type Bcr-abl; type: cell-based
T18 construct: BCR (N-terminal fusion partner); expressed in transfected cells; host or cells: Ba/F3 (murine pro-B cells); the other entry of the earlier key: BCR (P11274, Breakpoint cluster region protein)
Description: as §2, §3

[24] = biological target: T19, SAPK2α (Homo sapiens, UniProt Q16539); test: Upstate KinaseProfiler radio-enzymatic filter binding assay, SAPK2α; type: biochemical; details: at a concentration of 10 μM; read-out: percentage inhibition
T19 construct: purchased Upstate
T19 sequence (Q16539 whole entry): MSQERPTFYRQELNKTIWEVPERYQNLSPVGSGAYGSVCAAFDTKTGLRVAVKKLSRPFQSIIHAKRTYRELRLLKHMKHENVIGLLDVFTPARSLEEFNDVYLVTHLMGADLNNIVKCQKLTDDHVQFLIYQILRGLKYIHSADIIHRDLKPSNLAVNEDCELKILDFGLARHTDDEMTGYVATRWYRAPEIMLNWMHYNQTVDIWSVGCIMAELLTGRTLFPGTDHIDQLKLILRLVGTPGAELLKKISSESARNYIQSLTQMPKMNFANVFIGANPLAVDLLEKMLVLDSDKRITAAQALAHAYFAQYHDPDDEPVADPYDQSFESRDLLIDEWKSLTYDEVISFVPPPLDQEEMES
Description: as §1

T1 sequence (P52564 whole entry): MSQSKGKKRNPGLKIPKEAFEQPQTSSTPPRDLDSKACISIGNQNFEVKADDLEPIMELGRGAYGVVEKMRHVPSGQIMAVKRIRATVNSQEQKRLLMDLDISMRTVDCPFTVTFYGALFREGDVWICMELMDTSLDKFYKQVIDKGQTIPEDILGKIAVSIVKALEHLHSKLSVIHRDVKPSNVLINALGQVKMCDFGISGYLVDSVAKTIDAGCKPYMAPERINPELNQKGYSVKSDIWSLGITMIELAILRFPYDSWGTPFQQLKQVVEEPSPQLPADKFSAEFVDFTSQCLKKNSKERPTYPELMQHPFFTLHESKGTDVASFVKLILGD

COc1ccc(Nc2cc3c(cn2)cc(-c2cc(NC(=O)c4cccc(C(F)(F)F)c4)ccc2C)c(=O)n3C)cn1 [Example 8, N-{3-[7-(6-Methoxy-pyridin-3-ylamino)-1-methyl-2-oxo-1,2-dihydro-[1,6]naphthyridin-3-yl]-4-methyl-phenyl}-3-trifluoromethyl-benzamide]
inhibition at 10 µM [1]: 97% | inhibition at 10 µM [2]: 99% | inhibition at 10 µM [3]: 89% | percentage inhibition [4]: 100% | inhibition at 10 µM [5]: 100% | inhibition at 10 µM [6]: 97% | IC50 [7]: 43 nM | IC50 [8]: < 0.5 nM | IC50 [9]: 500 nM | inhibition at 10 µM [10]: 98% | IC50 [11]: 107 nM | IC50 [12]: 48 nM | IC50 [13]: 9 nM | inhibition at 10 µM [14]: 86% | IC50 [15]: 122 nM | IC50 [16]: 3 nM | IC50 [17]: 17 nM | inhibition at 10 µM [18]: 99% | inhibition at 10 µM [19]: 100% | inhibition at 10 µM [20]: 96% | inhibition at 10 µM [21]: 91% | inhibition at 10 µM [22]: 90% | IC50 [23]: < 0.5 nM | inhibition at 10 µM [24]: 95%
